{"source": "paper PMC2639596", "about": "“Antimicrobial peptides effectively kill a broad spectrum of Listeria monocytogenes and Staphylococcus aureus strains independently of origin, sub-type, or virulence factor expression” (BMC Microbiology, 2008)", "key": {"Listeria monocytogenes": {"system": "Listeria monocytogenes", "assay": "MIC of host defense peptides in liquid medium (microbroth dilution)", "assay_type": "cell-based", "conditions": "37°C; for MIC: 18–24 h", "procedure": "(§1) Experiments were carried out with a collection of 25 Listeria monocytogenes strains (Table 1) and 16 Staphylococcus aureus strains (Table 2) representing different lineages and serotypes (L. monocytogenes), spa types (S. aureus), and origins (food processing environment, food products, and human clinical isolates). Six L. monocytogenes strains were mutants of the EGD strain and were mutated in genes known to be involved in stress tolerance. The S. aureus collection comprised two deletion mutants, strains Sa113/ΔmprF [8] and Sa113/ΔdltA [7], known to be more sensitive to host defense peptides. Two of the S. aureus strains could not immediately be assigned to an existing spa type and we are in the process of acquiring the additional information that is needed to assign a new spa type to them. The strains were obtained from The National Institute of Aquatic Resources and The National Food Institute, Technical University of Denmark, Faculty of Life Sciences, University of Copenhagen, Denmark, Statens Serum Institut, Denmark, University of Würzburg, Germany and Campden Food and Drink Association, United Kingdom. Stock cultures were stored at -80°C in 4% (w/V) glycerol, 0.5% (w/V) glucose, and 2.0% (w/V) skimmed milk powder. The bacteria were grown in Brain Heart Infusion (BHI) broth (Oxoid, CM0225), Tryptone Soy Broth (TSB) (Oxoid, CM129), and cation-adjusted Mueller-Hinton II Broth (MHB) (Becton Dickinson, 212322) adjusted to pH 7.4. To avoid unspecific binding of host defense peptides to plastic ware and agar, all MIC determinations were carried out using polypropylene plastic ware and radial diffusion assays were carried out in MHB supplemented with 1% agarose (Invitrogen, 15510-027) as gelling agent.\n(§2) Protamine was purchased from Sigma (P4020-5G). Plectasin, novicidin, and novispirin G10 were supplied by Novozymes A/S. Recombinant HBD-3 was purchased from PeproTech (300-52).\n(§3) The strain collection was tested for sensitivity to protamine, plectasin, novicidin, and novispirin G10 by determining their minimal inhibitory concentration (MIC) using a microbroth dilution method. Colonies from a BHI agar plate incubated overnight were suspended in MHB pH 7.4 to a turbidity of 0.11–0.12 at 546 nm (approx. 1.0 × 10^8 CFU/ml) and diluted in MHB to a concentration of 5.0 × 10^5 CFU/ml. 90 μl of bacterial suspension was incubated with 10 μl of peptide solution in polypropylene 96-well plates (Nunc, 442587) for 18–24 h at 37°C. The peptide solutions were made fresh on the day of assay and diluted two-fold. The range of concentrations assayed were 0.031–32 μg/ml for novicidin, 0.125–128 μg/ml for protamine and novispirin G10, and 0.25–256 μg/ml for plectasin. MIC was the lowest peptide concentration at which visual growth was inhibited. The minimum bactericidal concentration (MBC) values were determined by plating l0 μl samples from wells with no visible growth onto BHI agar plates. MBC was the lowest concentration of each peptide of which 99.9% reduction of the initial inoculum was observed."}, "Staphylococcus aureus": {"system": "Staphylococcus aureus", "assay": "MIC of host defense peptides in liquid medium (microbroth dilution)", "assay_type": "cell-based", "conditions": "37°C; for MIC: 18–24 h", "procedure": "as §1, §2, §3"}, "[1]": {"system": "L. monocytogenes and S. aureus", "assay": "Minimum bactericidal concentration (MBC), plating from MIC wells", "assay_type": "cell-based, Listeria monocytogenes, Staphylococcus aureus", "conditions": "99.9% reduction of initial inoculum; 10 μl from wells with no visible growth plated on BHI agar", "procedure": "as §3"}}, "data": [{"substance": "novicidin", "values": [{"measurement": "MIC values against L. monocytogenes (range over strains)", "setting": "Listeria monocytogenes; range over 25 strains, MHB pH 7.4, 18–24 h", "value": "2 to 8", "unit": "µg/mL"}, {"measurement": "MIC", "setting": "Listeria monocytogenes; strain 2275 (EGD dps del), MHB pH 7.4, 5.0 × 10^5 CFU/ml", "value": 4, "unit": "µg/mL"}, {"measurement": "MIC", "setting": "Listeria monocytogenes; strain 2307 (EGD resD del), MHB pH 7.4, 5.0 × 10^5 CFU/ml", "value": 2, "unit": "µg/mL"}, {"measurement": "MIC", "setting": "Listeria monocytogenes; strain 2315 (EGD sigB del), MHB pH 7.4, 5.0 × 10^5 CFU/ml", "value": 4, "unit": "µg/mL"}, {"measurement": "MIC", "setting": "Listeria monocytogenes; strain 2317 (EGD prfA del), MHB pH 7.4, 5.0 × 10^5 CFU/ml", "value": 4, "unit": "µg/mL"}, {"measurement": "MIC", "setting": "Listeria monocytogenes; strain 2374 (EGD perR ins), MHB pH 7.4, 5.0 × 10^5 CFU/ml", "value": 4, "unit": "µg/mL"}, {"measurement": "MIC", "setting": "Listeria monocytogenes; strain 2375 (EGD perR del), MHB pH 7.4, 5.0 × 10^5 CFU/ml", "value": 4, "unit": "µg/mL"}, {"measurement": "MIC", "setting": "Listeria monocytogenes; strain 4239, MHB pH 7.4, 5.0 × 10^5 CFU/ml", "value": 4, "unit": "µg/mL"}, {"measurement": "MIC", "setting": "Listeria monocytogenes; strain 4446, MHB pH 7.4, 5.0 × 10^5 CFU/ml", "value": 4, "unit": "µg/mL"}, {"measurement": "MIC", "setting": "Listeria monocytogenes; strain 4459, MHB pH 7.4, 5.0 × 10^5 CFU/ml", "value": 4, "unit": "µg/mL"}, {"measurement": "MIC", "setting": "Listeria monocytogenes; strain 4666, MHB pH 7.4, 5.0 × 10^5 CFU/ml", "value": 8, "unit": "µg/mL"}, {"measurement": "MIC", "setting": "Listeria monocytogenes; strain 6895, MHB pH 7.4, 5.0 × 10^5 CFU/ml", "value": 4, "unit": "µg/mL"}, {"measurement": "MIC", "setting": "Listeria monocytogenes; strain 7291, MHB pH 7.4, 5.0 × 10^5 CFU/ml", "value": 8, "unit": "µg/mL"}, {"measurement": "MIC", "setting": "Listeria monocytogenes; strain 7418, MHB pH 7.4, 5.0 × 10^5 CFU/ml", "value": 4, "unit": "µg/mL"}, {"measurement": "MIC", "setting": "Listeria monocytogenes; strain EGD (wildtype), MHB pH 7.4, 5.0 × 10^5 CFU/ml", "value": 4, "unit": "µg/mL"}, {"measurement": "MIC", "setting": "Listeria monocytogenes; strain H13-1, MHB pH 7.4, 5.0 × 10^5 CFU/ml", "value": 4, "unit": "µg/mL"}, {"measurement": "MIC", "setting": "Listeria monocytogenes; strain LO28 (wildtype), MHB pH 7.4, 5.0 × 10^5 CFU/ml", "value": 2, "unit": "µg/mL"}, {"measurement": "MIC", "setting": "Listeria monocytogenes; strain La22, MHB pH 7.4, 5.0 × 10^5 CFU/ml", "value": 4, "unit": "µg/mL"}, {"measurement": "MIC", "setting": "Listeria monocytogenes; strain La111, MHB pH 7.4, 5.0 × 10^5 CFU/ml", "value": 4, "unit": "µg/mL"}, {"measurement": "MIC", "setting": "Listeria monocytogenes; strain M103-1, MHB pH 7.4, 5.0 × 10^5 CFU/ml", "value": 4, "unit": "µg/mL"}, {"measurement": "MIC", "setting": "Listeria monocytogenes; strain N53-1, MHB pH 7.4, 5.0 × 10^5 CFU/ml", "value": 2, "unit": "µg/mL"}, {"measurement": "MIC", "setting": "Listeria monocytogenes; strain No40-1, MHB pH 7.4, 5.0 × 10^5 CFU/ml", "value": 4, "unit": "µg/mL"}, {"measurement": "MIC", "setting": "Listeria monocytogenes; strain O57, MHB pH 7.4, 5.0 × 10^5 CFU/ml", "value": 4, "unit": "µg/mL"}, {"measurement": "MIC", "setting": "Listeria monocytogenes; strain R479a, MHB pH 7.4, 5.0 × 10^5 CFU/ml", "value": 4, "unit": "µg/mL"}, {"measurement": "MIC", "setting": "Listeria monocytogenes; strain Scott A, MHB pH 7.4, 5.0 × 10^5 CFU/ml", "value": 4, "unit": "µg/mL"}, {"measurement": "MIC", "setting": "Listeria monocytogenes; strain V518a, MHB pH 7.4, 5.0 × 10^5 CFU/ml", "value": 8, "unit": "µg/mL"}, {"measurement": "MIC values against S. aureus (range over strains)", "setting": "Staphylococcus aureus; range over 16 strains, MHB pH 7.4, 18–24 h", "value": "0.5 to 12", "unit": "µg/mL"}, {"measurement": "MIC", "setting": "Staphylococcus aureus; strain 796, MHB pH 7.4, 5.0 × 10^5 CFU/ml", "value": 6, "unit": "µg/mL"}, {"measurement": "MIC", "setting": "Staphylococcus aureus; strain 2148-jvi, MHB pH 7.4, 5.0 × 10^5 CFU/ml", "value": 4, "unit": "µg/mL"}, {"measurement": "MIC", "setting": "Staphylococcus aureus; strain 8325-4 (wildtype), MHB pH 7.4, 5.0 × 10^5 CFU/ml", "value": 8, "unit": "µg/mL"}, {"measurement": "MIC", "setting": "Staphylococcus aureus; strain 14943, MHB pH 7.4, 5.0 × 10^5 CFU/ml", "value": 8, "unit": "µg/mL"}, {"measurement": "MIC", "setting": "Staphylococcus aureus; strain 15033, MHB pH 7.4, 5.0 × 10^5 CFU/ml", "value": 8, "unit": "µg/mL"}, {"measurement": "MIC", "setting": "Staphylococcus aureus; strain B29997, MHB pH 7.4, 5.0 × 10^5 CFU/ml", "value": 4, "unit": "µg/mL"}, {"measurement": "MIC", "setting": "Staphylococcus aureus; strain B31369, MHB pH 7.4, 5.0 × 10^5 CFU/ml", "value": 12, "unit": "µg/mL"}, {"measurement": "MIC", "setting": "Staphylococcus aureus; strain J15033, MHB pH 7.4, 5.0 × 10^5 CFU/ml", "value": 8, "unit": "µg/mL"}, {"measurement": "MIC", "setting": "Staphylococcus aureus; strain K3-B2, MHB pH 7.4, 5.0 × 10^5 CFU/ml", "value": 4, "unit": "µg/mL"}, {"measurement": "MIC", "setting": "Staphylococcus aureus; strain KES 439, MHB pH 7.4, 5.0 × 10^5 CFU/ml", "value": 4, "unit": "µg/mL"}, {"measurement": "MIC", "setting": "Staphylococcus aureus; strain KES 626, MHB pH 7.4, 5.0 × 10^5 CFU/ml", "value": 4, "unit": "µg/mL"}, {"measurement": "MIC", "setting": "Staphylococcus aureus; strain KES 735, MHB pH 7.4, 5.0 × 10^5 CFU/ml", "value": 4, "unit": "µg/mL"}, {"measurement": "MIC", "setting": "Staphylococcus aureus; strain KES 855, MHB pH 7.4, 5.0 × 10^5 CFU/ml", "value": 4, "unit": "µg/mL"}, {"measurement": "MIC", "setting": "Staphylococcus aureus; strain Sa113 (wildtype), MHB pH 7.4, 5.0 × 10^5 CFU/ml", "value": 6, "unit": "µg/mL"}, {"measurement": "MIC", "setting": "Staphylococcus aureus; strain ΔdltA (Sa113 dltA ins), MHB pH 7.4, 5.0 × 10^5 CFU/ml", "value": 0.5, "unit": "µg/mL"}, {"measurement": "MIC", "setting": "Staphylococcus aureus; strain ΔmprF (Sa113 mprF del), MHB pH 7.4, 5.0 × 10^5 CFU/ml", "value": 1, "unit": "µg/mL"}, {"measurement": "minimum bactericidal concentrations (MBC)", "setting": "[1]", "value": "identical to the MICs"}]}]}
